According to patent publication US11357840B2, “Methods and compositions for reducing growth, migration and invasiveness of brain cancer stem cells and improving survival of patients with brain tumors” (HYPERSTEM SA, priority 2014, dated 2022):
No end group written: not given here. *: point of attachment. Boc = CC(C)(C)OC(=O)*; For = O=C*

What was measured:
[1] = test system: growth factor independent (GFI) hGBM TPCs; test: Matrigel invasion assay, GFI TPCs; format: cell-based, human
Text: Invasion Assays—Matrigel Invasion Assays
An Invasion Assay is an in vitro system to study invasion capability of malignant and normal cells. Specific applications include assessment of the metastatic potential of tumor cells, inhibition of metastasis by extracellular matrix components or antineoplastic drugs, altered expression of cell surface proteins, or matrix metalloproteinases in metastatic cells; and invasion of normal cells such as embryonic stem cells, cytotrophoblasts, endothelial cells, and fibroblasts.
According to one embodiment, the following Matrigel invasion assay protocol is one example of an invasion assay. A coating buffer is prepared and a Matrigel Matrix aliquot is thawed at 4° C. Then, a coating solution is prepared by mixing the Matrigel Matrix with the coating buffer. A number of permeable supports are transferred into the wells of a 24-well plate and 100 ul of the diluted Matrigel is put into each well of the 24-well plate. The plate is then incubated with the coated permeable support at 37° C. for 2 h for gelling. Cells are cultured and prepared for the invasion assay, for example, growth factor dependent hGBM tumor-propagating cells with stem-like characteristic (GFD TPCs) are pretreated with saturating concentrations of recombinant Wnt5a protein (GFD+R5); lentiviral-mediated over-expression GFD cells (GFD+LV5); growth factor independent (GFI) TPCs are treated with saturating concentrations of a Wnt5a-blocking antibody (AbW5) or of a recombinant Wnt3a protein (R3) or of a recombinant secreted frizzled-related protein 1 (SFRP1), or GFI TPCs exposed to Wnt5a-derived peptides termed Box5 (SEQ ID NO: 1), Peptide A (SEQ ID NO: 2) and Peptide B (SEQ ID NO: 3) Cell suspensions are prepared in culture medium containing 5×10^4 cells/mL for the 24 well invasion chambers. An aliquot of 0.5 mL of cell suspension (2.5×10^4 cells) is then added to each 24 well invasion chamber. A chemoattractant is added to the wells of the plate (such as fibronectin as an adhesive substrate). The Cell invasion chambers are then incubated overnight in a humidified tissue culture incubator at 37° C., 5% CO2 atmosphere. The noninvaded cells on the top of the Matrigel coated permeable support are scraped off with a cotton swab. Then the permeable supports from 24-well plates are removed and stained with a cell staining solution and the invaded cells are counted under a light microscope.

[2] = test system: hGBM TPC-derived tumors (GFI / GFD TPCs); test: Orthotopic implantation of luciferase-tagged TPCs into SCID mice; format: in vivo, mouse (SCID); conditions: for tumor growth (luc-TPC signal, time course): GFI cells treated in culture prior to transplantation (pre-treatment), SCID mice, FIG. 18c; for tumor growth (luc-TPC signals, time course): co-injection (co-treatment) with either GFD or GFI TPCs, FIGS. 18e and 18f; for tumor spread through the brain parenchyma (luciferase immunolabeling): luc-GFI pre-treated vs untreated GFI TPCs, FIG. 18d
Description: Evaluation of Tumorigenic Ability and Invasiveness In Vivo by Orthotopic Implantation
Tumorigenicity was determined by injecting tumor cells into immunodeprived adult severe combined immunodeficiency (SCID) mice. (Galli et al., Cancer Res. 2004, 65:7011-7021). Tumor cells, for example, GFI TPCs, GFD TPCs, GFI TPCs pretreated with Box5 (SEQ ID NO: 1), GFI TPCs pretreated with PeptideA (SEQ ID NO: 2) were injected into SCID mice orthotopically to evaluate the tumorigenic ability and invasiveness in vivo. Also, GFD or GFI TPCs and Wnt5a-blocking protein (AbWt), alone or in combination with BMP4 (B4), Box5 (SEQ ID NO: 1) and PeptideA (SEQ ID NO: 2) were co-injected into the SCID mice.
Mice were sacrificed at different times. Serial histological reconstruction of mouse brain sections were immunolabeled for luciferase for evaluation.
Results from in vivo experiments were all subjected to statistical analysis. Survival curves were estimated using the Kaplan-Meier method.

[3] = test system: GFI or GFD TPCs; test: Growth kinetics (expansion) of TPCs; format: cell-based, human; conditions: FIG. 16g
[4] = test system: 4T1 breast cancer cells; conditions: in vitro; Safholm et al. 2008; cited from earlier work
[5] = test system: melanoma cells; conditions: Jenei et al. 2009; cited from earlier work
[6] = test system: growth factor dependent hGBM TPCs (GFD TPCs); test: Matrigel invasion assay, GFD TPCs; format: cell-based, human; conditions: GFD cells treated with saturating concentrations (GFD+R5); FIG. 16a
Description: According to one embodiment, the following Matrigel invasion assay protocol is one example of an invasion assay. A coating buffer is prepared and a Matrigel Matrix aliquot is thawed at 4° C. Then, a coating solution is prepared by mixing the Matrigel Matrix with the coating buffer. A number of permeable supports are transferred into the wells of a 24-well plate and 100 ul of the diluted Matrigel is put into each well of the 24-well plate. The plate is then incubated with the coated permeable support at 37° C. for 2 h for gelling. […] Then the permeable supports from 24-well plates are removed and stained with a cell staining solution and the invaded cells are counted under a light microscope. […]

[7] = GFI TPCs exposed to Wnt5a-derived peptides, FIGS. 16c and 16d
[8] = saturating concentrations, FIG. 16b

With “Leu-Glu-Gly-Asp-Met (LEGDM) [Peptide B, pentapeptide LEGDM, peptide derivative of Box5]” the “invasiveness of GFI TPCs” value [1, 7] was “decreased the invasiveness of GFI TPCs in a dose-dependent fashion”.

For “LECGDM [Peptide A, hexapeptide LECGDM, peptide derivative of Box5]”, the “invasiveness of GFI TPCs” value [1, 7] was “decreased the invasiveness of GFI TPCs in a dose-dependent fashion”, the “tumor growth (luc-TPC signal, time course)” value [2] was “tumor growth is decreased” and the “tumor growth (luc-TPC signals, time course)” value [2] was “inhibited”. The “tumor spread through the brain parenchyma (luciferase immunolabeling)” value [2] was “spread through the brain parenchyma less” and the “ability of GFI or GFD TPCs to expand (slope of the growth curves)” value (“ability … (slope of the growth curves)” below) [3] was “negligible effects”.

In the case of For-MDGCEL [Foxy-5, reference compound], the “apoptosis or proliferation of 4T1 breast cancer cells” value [4] is listed as “without affecting” and the “migration and invasion of 4T1 breast cancer cells” value [4] is listed as “impaired migration and invasion”.

With “t-butoxycarbonyl-Met-Asp-Gly-Cys-Glu-Leu (Boc-MDGCEL) [Box5, Wnt5a-derived hexapeptide MDGCEL, antagonist of Wnt5a, modified from Foxy-5, reference compound]” the “invasiveness of GFI TPCs” value [1, 7] was “decreased the invasiveness of GFI TPCs in a dose-dependent fashion”, the “tumor growth (luc-TPC signal, time course)” value [2] was “tumor growth is decreased” and the “tumor growth (luc-TPC signals, time course)” value [2] was “inhibited”. The “tumor spread through the brain parenchyma (luciferase immunolabeling)” value [2] was “spread through the brain parenchyma less”, the “ability … (slope of the growth curves)” value [3] was “negligible effects” and the “antagonism of Wnt5a-mediated migration and invasion of melanoma cells” value [5] was “potent, selective antagonist”.

B1: BMP4: bone morphogenetic protein 4, positive control (protein, UniProt P12644 293-408, looked up)
Bone morphogenetic protein 4: SPKHHSQRARKKNKNCRRHSLYVDFSDVGWNDWIVAPPGYQAFYCHGDCPFPLADHLNSTNHAIVQTLVNSVNSSIPKACCVPTELSAISMLYLDEYDKVVLKNYQEMVVEGCGCR
For B1, the “ability … (slope of the growth curves)” value [3] was “significantly triggered negative deviations from the growth kinetics”.

B2: recombinant Wnt3a protein: recombinant Wnt3a protein (R&D Systems) (protein, UniProt P56704 19-352, looked up)
Protein Wnt-3a: SYPIWWSLAVGPQYSSLGSQPILCASIPGLVPKQLRFCRNYVEIMPSVAEGIKIGIQECQHQFRGRRWNCTTVHDSLAIFGPVLDKATRESAFVHAIASAGVAFAVTRSCAEGTAAICGCSSRHQGSPGKGWKWGGCSEDIEFGGMVSREFADARENRPDARSAMNRHNNEAGRQAIASHMHLKCKCHGLSGSCEVKTCWWSQPDFRAIGDFLKDKYDSASEMVVEKHRESRGWVETLRPRYTYFKVPTERDLVYYEASPNFCEPNPETGSFGTRDRTCNVSSHGIDGCDLLCCGRGHNARAERRREKCRCVFHWCCYVSCQECTRVYDVHTCK
With B2 the “invasiveness of GFI TPCs” value [1, 8] was “decreased the invasiveness”.

B3: recombinant Wnt5a protein: recombinant Wnt5a protein (protein)
chain: IIGAQPLCSQLAGLSQGQKKLCHLYQDHMQYIGEGAKTGIKECQYQFRHRRWNCSTVDNTSVFGRVMQIGSRETAFTYAVSAAGVVNAMSRACREGELSTCGCSRAARPKDLPRDWLWGGCGDNIDYGYRFAKEFVDARERERIHAKGSYESARILMNLHNNEAGRRTVYNLADVACKCHGVSGSCSLKTCWLQLADFRKVGDALKEKYDSAAAMRLNSRGKLVQVNSRFNSPTTQDLVYIDPSPDYCVRNESTGSLGTQGRLCNKTSEGMDGCELMCCGRGYDQFKTVQTERCHCKFHWCCYVKCKKCTEIVDQFVCK
For B3, the “apoptosis or proliferation of 4T1 breast cancer cells” value [4] is listed as “without affecting”, the “migration and invasion of 4T1 breast cancer cells” value [4] is listed as “impaired migration and invasion” and the “cell migration of GFD cells” value [6] is listed as “increase in cell migration”.

B4: SFRP1: recombinant secreted frizzled-related protein 1, an endogenous Wnt antagonist (protein, UniProt Q8N474 32-314, looked up)
Secreted frizzled-related …: SEYDYVSFQSDIGPYQSGRFYTKPPQCVDIPADLRLCHNVGYKKMVLPNLLEHETMAEVKQQASSWVPLLNKNCHAGTQVFLCSLFAPVCLDRPIYPCRWLCEAVRDSCEPVMQFFGFYWPEMLKCDKFPEGDVCIAMTPPNATEASKPQGTTVCPPCDNELKSEAIIEHLCASEFALRMKIKEVKKENGDKKIVPKKKKPLKLGPIKKKDLKKLVLYLKNGADCPCHQLDNLSHHFLIMGRKVKSQYLLTAIHKWDKKNKEFKNFMKKMKNHECPTFQSVFK
In the case of B4, the “invasiveness of GFI TPCs” value [1, 8] is reported as “decreased the invasiveness”.
